Measurements published in ChEMBL document CHEMBL1201862, “PubChem BioAssay data set” (2004).
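Five compound concentrations were applied to cells in 96-well plates for 48 hours; endpoints were derived by simple linear interpolation of the resulting dose-response curve. GI50 is the concentration that inhibits growth by half.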 Activity calls are given as the source filed them. Rule as the data show it: active = GI50 up to about 1.1 µM and inactive = higher.

What was measured:
Experiment in all cases: DTP human tumour cell line panel, 48 h
XF498 = test system: XF498
DMS-114 = test system: DMS-114
DLD-1 = test system: DLD-1
RXF 631 = test system: RXF 631
KM-20L2 = test system: KM-20L2
LXFL 529 = test system: LXFL 529
M19-MEL = test system: M19-MEL
DMS-273 = test system: DMS-273
HOP-18 = test system: HOP-18

| SMILES | GI50 (XF498) | GI50 (DMS-114) | GI50 (DLD-1) | GI50 (RXF 631) | GI50 (KM-20L2) | GI50 (LXFL 529) | GI50 (M19-MEL) | GI50 (DMS-273) | GI50 (HOP-18) |
| --- | --- | --- | --- | --- | --- | --- | --- | --- | --- |
| COC(=O)c1c(CC#N)cccc1CC#N | > 100 µM (inactive) | > 100 µM (inactive) | > 100 µM (inactive) | > 100 µM (inactive) | > 100 µM (inactive) | > 100 µM (inactive) | > 100 µM (inactive) | > 100 µM (inactive) |  |
| CC(=O)OC[C@]1(O)CC[C@@]23CC1C[C@@H]2CCC1C(C)(C)CCC[C@@]13C (some centres not stated) | 14.1 µM (inactive) | 11.2 µM (inactive) | 15.3 µM (inactive) | 14.2 µM (inactive) | 17.3 µM (inactive) | 11.2 µM (inactive) | 16 µM (inactive) | 3.65 µM (inactive) |  |
| O=C1CCC(=O)N1CNc1cccc(NCN2C(=O)CCC2=O)c1 | > 100 µM (inactive) |  | > 100 µM (inactive) | > 100 µM (inactive) | 11 µM (inactive) | 56.8 µM (inactive) | > 100 µM (inactive) | 61.1 µM (inactive) |  |
| COc1ccc2c(c1)[n+]([O-])c(C(=O)C/C(=N/NC(=O)C[N+](C)(C)C)C(=O)Nc1cccc(C)c1C)c(C)[n+]2[O-] |  | > 100 µM (inactive) | > 100 µM (inactive) | > 100 µM (inactive) | > 100 µM (inactive) | > 100 µM (inactive) | > 100 µM (inactive) | > 100 µM (inactive) | > 100 µM (inactive) |
| Cc1ccc(S(=O)(=O)N2CCC3(C(/C=C/c4ccccc4)=Nc4ccccc43)C2c2ccccc2)cc1 (configuration not stated) | 63.1 µM (inactive) | > 100 µM (inactive) | > 100 µM (inactive) |  | > 100 µM (inactive) | > 100 µM (inactive) | > 100 µM (inactive) | > 100 µM (inactive) |  |
| COC(=O)OCC1OC(N2C(=O)NC(=O)C(Br)C2N=[N+]=[N-])CC1OC(=O)OC (configuration not stated) | > 100 µM (inactive) | > 100 µM (inactive) | > 100 µM (inactive) |  | > 100 µM (inactive) | > 100 µM (inactive) | > 100 µM (inactive) | > 100 µM (inactive) |  |
| C=C(C)CCOC(c1ccccc1)(c1ccccc1)c1ccccc1 | 26.1 µM (inactive) |  | 60.4 µM (inactive) | 55.5 µM (inactive) | 23.5 µM (inactive) | 45.8 µM (inactive) | 27.9 µM (inactive) |  |  |
| N#C/C(=C1\OC(=N)C(c2ccc(Cl)cc2)=C1O)c1ccc(Cl)cc1 |  | 14.8 µM (inactive) | 15.3 µM (inactive) |  | 18.4 µM (inactive) | 11.7 µM (inactive) | 15.1 µM (inactive) | 13.5 µM (inactive) | 16.9 µM (inactive) |
| COc1ccc(-c2[nH]c3ccccc3c2CCNS(=O)(=O)c2ccc(C)cc2)cc1 | > 8.83 µM (inactive) | > 9.55 µM (inactive) | 8.09 µM (inactive) | > 8.49 µM (inactive) | > 8.47 µM (inactive) | > 10 µM (inactive) | > 8.39 µM (inactive) | 7.48 µM (inactive) | > 7.4 µM (inactive) |
| CN(OC(=O)CC(=O)c1ccccc1)C(=O)Cc1ccccc1 |  | > 100 µM (inactive) | > 100 µM (inactive) | > 100 µM (inactive) | > 100 µM (inactive) | > 100 µM (inactive) | > 100 µM (inactive) |  |  |
| Cc1nc2ccccc2c(=O)n1-c1ccccc1F |  | > 100 µM (inactive) | > 100 µM (inactive) |  | > 100 µM (inactive) | > 100 µM (inactive) | > 100 µM (inactive) | > 100 µM (inactive) | > 100 µM (inactive) |
| CCCCCCCCCCCCC(O)C1CCC(C(O)CCCCC(O)CCCCCC2CC(CC(C)=O)C(=O)O2)O1 (configuration not stated) | 1.82 µM (inactive) | < 0.01 µM (active) | 6.21 µM (inactive) | 3.17 µM (inactive) | 4.29 µM (inactive) | 2.81 µM (inactive) | 2.45 µM (inactive) | 2.21 µM (inactive) | 11.3 µM (inactive) |
| O=C1c2ccccc2C(=O)N1C/C=N/NS(=O)(=O)c1ccc(F)cc1 | > 100 µM (inactive) | > 100 µM (inactive) | > 100 µM (inactive) | > 100 µM (inactive) | > 100 µM (inactive) | > 100 µM (inactive) | > 100 µM (inactive) | > 100 µM (inactive) |  |
| Sc1nnc(-c2cccnc2)[nH]1 | > 100 µM (inactive) | > 100 µM (inactive) | > 100 µM (inactive) |  | > 100 µM (inactive) | > 100 µM (inactive) |  | > 100 µM (inactive) | > 100 µM (inactive) |
| CCCCCCCCCCCCCCCCCC[N+](C)(C)Cc1ccc(C[N+](C)(C)CCCCCCCCCCCCCCCCCC)cc1 |  | 9.46 µM (inactive) | 22.1 µM (inactive) | 20.9 µM (inactive) | 31.3 µM (inactive) | 2.51 µM (inactive) | 16.9 µM (inactive) | 16.1 µM (inactive) | 13 µM (inactive) |
| Cn1nc(-c2ccccc2)c(N=[N+]=[N-])cc1=O | > 100 µM (inactive) | > 100 µM (inactive) |  |  | > 100 µM (inactive) | > 100 µM (inactive) | > 100 µM (inactive) | > 100 µM (inactive) |  |
| CC1CC2C(=O)N(c3ccccc3)C(=O)C2c2[nH]c3ccccc3c21 (configuration not stated) |  | 30.7 µM (inactive) | 89.3 µM (inactive) | 34.3 µM (inactive) |  | 42.5 µM (inactive) | 41.5 µM (inactive) | 79.4 µM (inactive) |  |
| COC(=O)C1[C@@H](C(=O)OC)C(=O)O[C@H]1c1cc(OC)c(OC)c(OC)c1 (some centres not stated) |  | > 100 µM (inactive) | > 100 µM (inactive) |  | > 100 µM (inactive) | > 100 µM (inactive) | > 100 µM (inactive) | > 100 µM (inactive) | > 100 µM (inactive) |
| Cc1ccc(C)c(NC(=O)CC/C(=N\NC(=O)C(N)=O)C(C)C(=O)c2ccc(O)cc2)c1 (configuration not stated) |  | > 100 µM (inactive) | > 100 µM (inactive) | > 100 µM (inactive) | > 100 µM (inactive) | > 100 µM (inactive) | > 100 µM (inactive) |  | > 100 µM (inactive) |
| O=C(NCCCCCCCCNC(=O)c1cnc2ccccc2n1)c1cnc2ccccc2n1 | > 100 µM (inactive) | > 100 µM (inactive) | > 100 µM (inactive) |  |  | > 100 µM (inactive) | > 100 µM (inactive) | > 100 µM (inactive) | > 100 µM (inactive) |
| CC(=O)NC1C(OCc2ccccc2)OC(CO)C(O)C1OC(C)C(=O)NC(C)C(=O)N[C@@H](CCC(=O)OCCCNC1c2ccccc2Nc2cccc([N+](=O)[O-])c21)C(N)=O (some centres not stated) |  |  | < 0.01 µM (active) |  | < 0.01 µM (active) | < 0.01 µM (active) |  | < 0.01 µM (active) | < 0.01 µM (active) |
| O=C1NC2(C=Cc3c(ccc4ccccc34)O2)Oc2ccccc21 (configuration not stated) | 19.1 µM (inactive) | 13.2 µM (inactive) |  |  | 25.8 µM (inactive) | 18.3 µM (inactive) | 25.1 µM (inactive) | 9.51 µM (inactive) |  |
| CC(=O)Nc1ccc(S(=O)(=O)NN(C)S(=O)(=O)c2ccc(C)cc2)cc1 |  | > 100 µM (inactive) | > 100 µM (inactive) |  | > 100 µM (inactive) |  | > 100 µM (inactive) |  |  |
| CN(C)c1ccc(/C=C2\Cc3ccccc3C2=O)cc1Br | 26.1 µM (inactive) | 29.6 µM (inactive) | 47.5 µM (inactive) |  | 81.8 µM (inactive) | 33.8 µM (inactive) | 51.1 µM (inactive) |  |  |
| C=C(CO)CC(O)c1cc(OC)ccc1OC (configuration not stated) | > 100 µM (inactive) |  |  |  |  | > 100 µM (inactive) | > 100 µM (inactive) | > 100 µM (inactive) |  |
| Cc1nc(Nc2ccc(Cl)cc2)sc1C(=O)NNC(=S)NN | 21.2 µM (inactive) | 17.5 µM (inactive) | 16.6 µM (inactive) | 19.5 µM (inactive) | 17.5 µM (inactive) | 20 µM (inactive) | 22.3 µM (inactive) | 18.6 µM (inactive) | 18.3 µM (inactive) |
| C=CC(=O)NCCSCCCOC1(C(=O)O)CC(O)C(NC(C)=O)C(C(O)C(O)CO)O1 (configuration not stated) | > 100 µM (inactive) | > 100 µM (inactive) | > 100 µM (inactive) |  |  | > 100 µM (inactive) |  | > 100 µM (inactive) |  |
| CCc1ccccc1NC(=O)C(=O)C(C(=O)c1ccc(OC)cc1)c1ccc(OC)cc1 (configuration not stated) | > 100 µM (inactive) | > 100 µM (inactive) | > 100 µM (inactive) | > 100 µM (inactive) | > 100 µM (inactive) | > 100 µM (inactive) |  | > 100 µM (inactive) | > 100 µM (inactive) |
